Some results are limits rather than exact numbers.

Experimental findings from ChEMBL document CHEMBL1149205, “Biological evaluation of substituted quinolines” (Bioorg Med Chem Lett, 2004) are described below.

The species entered for one assay is Homo sapiens. In words: Cytotoxicity in macrophages. The format is functional.
Assay [1] has as its system Plasmodium falciparum. In words: In vitro anti-protozoal activity against Plasmodium falciparum Ghana strain. The format is functional, organism-based.
The subject of assay [2] is Human T-cell leukemia virus type I. In words: Inhibitory activity against proliferation of HTLV-1 transformed cell lines (HUT-102) at 10 uM. Conditions: Primate T-lymphotropic virus 1, HuT-102. The format is functional.
A further assay concerns Leishmania amazonensis. In words: In vitro anti protozoal activity against Leishmania amazonensis strain MHOM/ET/L82/LV9 was determined. The format is functional, organism-based.
The subject of assay [3] is Plasmodium falciparum. Nature of the assay: In vitro anti-protozoal activity against Plasmodium falciparum W2. The format is functional, organism-based.
Another assay has as its system MRC5. Nature of the assay: Cytotoxicity in MRC-5 cells. The format is functional, cell-based. The settings on record: Homo sapiens.
The next assay deals with Trypanosoma cruzi. Nature of the assay: In vitro anti protozoal activity against Trypanosoma cruzi strain Tulahuen CL2 was determined. The format is functional, organism-based.
For the next assay, the system named is Trypanosoma brucei. Nature of the assay: In vitro anti protozoal activity against Trypanosoma brucei strain S427 was determined. The format is functional, organism-based.
For the next assay, the system named is Leishmania infantum. Nature of the assay: In vitro anti protozoal activity against Leishmania infantum strain MHOM-ET-67/L82 was determined. The format is functional, organism-based.

`O=[N+]([O-])c1ccc(/C=C/c2ccc3ccccc3n2)cc1`: the IC50 (commonly the concentration that inhibits the measured activity by half) in the assay filed under Homo sapiens is above 32 µM; in the assay on Plasmodium falciparum [1], above 32 µM; in the assay with Leishmania amazonensis, above 32 µM; in the assay with Plasmodium falciparum [3], above 32 µM; in the assay with MRC5, above 32 µM; with Trypanosoma cruzi it was 28 µM. For the same compound, the IC50 with Trypanosoma brucei and with Leishmania infantum (Leishmania infantum) was above 32 µM throughout. Also, the inhibition (in general, the share of the control response that was lost under treatment) at 10 µM in assay [2] turned out to be 0%.
On to `Br/C=C/c1ccc2ccccc2n1`, for which the IC50 in the assay filed under Homo sapiens is 13 µM; with Plasmodium falciparum [1], above 32 µM; in the assay with Leishmania amazonensis it was 3 µM; in the assay with MRC5, above 32 µM; with Trypanosoma cruzi, 0.15 µM; with Trypanosoma brucei, 1 µM. In the assay on Leishmania infantum (Leishmania infantum), the IC50 amounted to 2 µM.
On to `CN(C)c1ccc(/C=C/c2ccc3ccccc3n2)cc1`, for which the IC50 is 16 µM in the assay listed under Homo sapiens; above 32 µM in the assay with Plasmodium falciparum [1]; 16 µM with Leishmania amazonensis; above 32 µM in the assay with Plasmodium falciparum [3]; above 32 µM in the assay on MRC5; 17 µM in the assay on Trypanosoma cruzi. In addition, the IC50 with Trypanosoma brucei is 6 µM; in the assay on Leishmania infantum (Leishmania infantum), above 32 µM. In assay [2], this compound gave an inhibition at 10 µM of 26%.
For the compound `COc1cc(NCc2ccc3ccccc3n2)cc(OC)c1OC`, the IC50 in the assay filed under Homo sapiens, with Plasmodium falciparum [1], in the assay with Leishmania amazonensis, in the assay with Plasmodium falciparum [3], in the assay on MRC5 and with Trypanosoma cruzi was above 32 µM each time. Further, the IC50 in the assay on Trypanosoma brucei and in the assay with Leishmania infantum (Leishmania infantum) was above 32 µM in each case. In [2], this compound returned an inhibition at 10 µM of 0%.
Turning to `COc1ccc(/C=C/c2ccc3ccccc3n2)cc1OC`, the IC50 in the assay filed under Homo sapiens, in the assay on Plasmodium falciparum [1], in the assay on Leishmania amazonensis, with Plasmodium falciparum [3], in the assay on MRC5 and in the assay on Trypanosoma cruzi was above 32 µM in each case. The IC50 was determined as 26 µM in the assay on Trypanosoma brucei and 22 µM with Leishmania infantum (Leishmania infantum). The compound also came in with an inhibition at 10 µM in [2] of 0%.
Take `COc1ccc(/C=C/c2ccc3ccccc3n2)c(OC)c1`: the IC50 in the assay filed under Homo sapiens was above 32 µM; with Plasmodium falciparum [1], above 32 µM; with Leishmania amazonensis, above 32 µM; in the assay with Plasmodium falciparum [3], 30 µM; in the assay on MRC5, above 32 µM; in the assay on Trypanosoma cruzi, above 32 µM. Besides, the figures for the IC50 in the assay with Trypanosoma brucei and in the assay with Leishmania infantum (Leishmania infantum) were 18 µM and above 32 µM, respectively. In assay [2], this compound gave an inhibition at 10 µM of 0%.
As to `O=[N+]([O-])c1ccc(C(O)Cc2ccc3ccccc3n2)cc1` (centres undefined), the IC50 is above 32 µM in the assay filed under Homo sapiens; 15 µM with Plasmodium falciparum [1]; above 32 µM with Leishmania amazonensis; 6 µM in the assay with Plasmodium falciparum [3]; above 32 µM with MRC5; above 32 µM in the assay on Trypanosoma cruzi. Also, the IC50 with Trypanosoma brucei and with Leishmania infantum (Leishmania infantum) was above 32 µM throughout. In addition, in assay [2], the inhibition at 10 µM turned out to be 10%.
In the case of `O=C(/C=C/c1ccc2ccccc2n1)N1CCOCC1`, the IC50 in the assay listed under Homo sapiens was above 32 µM; in the assay with Plasmodium falciparum [1], 12 µM; with Leishmania amazonensis, above 32 µM; in the assay with Plasmodium falciparum [3], 16 µM; in the assay with MRC5 it was above 32 µM; with Trypanosoma cruzi, 13 µM. Besides, the results for the IC50 in the assay on Trypanosoma brucei and in the assay on Leishmania infantum (Leishmania infantum) were above 32 µM and 18 µM, respectively. Moreover, the inhibition at 10 µM in assay [2] turned out to be 0%.
As for `O=C(/C=C/c1ccc2ccccc2n1)N1CCCCC1`, the IC50 was above 32 µM in the assay filed under Homo sapiens; 15 µM in the assay on Plasmodium falciparum [1]; 18 µM in the assay on Leishmania amazonensis; 17 µM with Plasmodium falciparum [3]; above 32 µM in the assay on MRC5; 17 µM in the assay with Trypanosoma cruzi. For the same compound, the results for the IC50 in the assay with Trypanosoma brucei and in the assay on Leishmania infantum (Leishmania infantum) were above 32 µM and 16 µM, respectively. This compound also had an inhibition at 10 µM in assay [2] of 0%.
`CN1CCN(C(=O)/C=C/c2ccc3ccccc3n2)CC1`: the IC50 in the assay filed under Homo sapiens, with Plasmodium falciparum [1], in the assay on Leishmania amazonensis, in the assay with Plasmodium falciparum [3], with MRC5 and with Trypanosoma cruzi was above 32 µM each time. Besides, the IC50 with Trypanosoma brucei and in the assay on Leishmania infantum (Leishmania infantum) was above 32 µM in each case. The compound also had an inhibition at 10 µM in assay [2] of 0%.
On to `O=[N+]([O-])/C=C/c1ccc2ccccc2n1`, for which the IC50 is above 32 µM in the assay filed under Homo sapiens; 16 µM in the assay on Plasmodium falciparum [1]; above 32 µM in the assay with Leishmania amazonensis; 14 µM with Plasmodium falciparum [3]; 22 µM with MRC5; 1 µM in the assay with Trypanosoma cruzi. The IC50 in the assay on Trypanosoma brucei is 18 µM; in the assay on Leishmania infantum (Leishmania infantum) it was above 8 µM. This compound registered an inhibition at 10 µM in [2] of 76%.
As for `Fc1ccc(/C=C/c2ccc3ccccc3n2)cc1`, the half-maximal inhibitory concentration (IC50) is above 32 µM in the assay listed under Homo sapiens; above 32 µM with Plasmodium falciparum [1]; above 32 µM in the assay with Leishmania amazonensis; above 32 µM with Plasmodium falciparum [3]; above 32 µM in the assay with MRC5; 22 µM in the assay on Trypanosoma cruzi. The IC50 in the assay with Trypanosoma brucei and in the assay on Leishmania infantum (Leishmania infantum) was above 32 µM throughout. The compound also gave an inhibition at 10 µM in assay [2] of 26%.
`CN(C)c1ccc(C(O)Cc2ccc3ccccc3n2)cc1` (centres undefined): the IC50 in the assay listed under Homo sapiens, in the assay on Plasmodium falciparum [1], in the assay on Leishmania amazonensis, with Plasmodium falciparum [3], in the assay with MRC5 and with Trypanosoma cruzi was above 32 µM in each case. Further, the IC50 with Trypanosoma brucei and with Leishmania infantum (Leishmania infantum) was above 32 µM in each case. Further, at 10 µM the inhibition in [2] was 0%.
Take `COc1ccc(C(O)Cc2ccc3ccccc3n2)cc1OC` (centres undefined): the IC50 in the assay listed under Homo sapiens, in the assay on Plasmodium falciparum [1], in the assay on Leishmania amazonensis, in the assay on Plasmodium falciparum [3], in the assay on MRC5 and with Trypanosoma cruzi was above 32 µM throughout. Moreover, the IC50 with Trypanosoma brucei and in the assay with Leishmania infantum (Leishmania infantum) was above 32 µM each time. The compound further gave an inhibition at 10 µM in assay [2] of 0%.
In the case of `OC(Cc1ccc2ccccc2n1)c1ccc(F)cc1` (centres undefined), the IC50 in the assay filed under Homo sapiens is above 32 µM; with Plasmodium falciparum [1] it was 4 µM; in the assay with Leishmania amazonensis, above 32 µM; with Plasmodium falciparum [3], 1 µM; in the assay with MRC5 it was above 32 µM; in the assay on Trypanosoma cruzi, above 32 µM. In addition, the IC50 in the assay with Trypanosoma brucei and with Leishmania infantum (Leishmania infantum) was above 32 µM in each case. For the same compound, testing at 10 µM in [2] gave an inhibition of 0%.
On to `Fc1ccccc1NCc1ccc2ccccc2n1`, for which the IC50 in the assay filed under Homo sapiens, with Plasmodium falciparum [1], in the assay with Leishmania amazonensis, in the assay on Plasmodium falciparum [3], with MRC5 and in the assay on Trypanosoma cruzi was above 32 µM each time. Further, the IC50 in the assay on Trypanosoma brucei and in the assay on Leishmania infantum (Leishmania infantum) was above 32 µM each time. This compound registered an inhibition at 10 µM in [2] of 0%.
For `OC(Cc1ccc2ccccc2n1)c1ccco1` (centres undefined), the IC50 in the assay filed under Homo sapiens, in the assay on Plasmodium falciparum [1], with Leishmania amazonensis, with Plasmodium falciparum [3], with MRC5 and with Trypanosoma cruzi was above 32 µM throughout. Moreover, the IC50 with Trypanosoma brucei and in the assay on Leishmania infantum (Leishmania infantum) was above 32 µM throughout. Also, the inhibition at 10 µM in [2] worked out at 0%.
`O=C/C=C/c1ccc2ccccc2n1`: the IC50 in the assay listed under Homo sapiens came out at 9 µM; with Plasmodium falciparum [1], 31 µM; with Leishmania amazonensis, 4 µM; in the assay with MRC5 it was 16 µM; in the assay on Trypanosoma cruzi it was 5 µM; in the assay with Trypanosoma brucei, 19 µM. The compound further came in with an IC50 in the assay with Leishmania infantum (Leishmania infantum) of 2 µM. The inhibition at 10 µM in [2] amounted to 34%.
With `CCCCCCCCCCCCCCCCOP(=O)([O-])OCC[N+](C)(C)C` [MILTEFOSINE], the IC50 is 12.5 µM in the assay filed under Homo sapiens and 3.12 µM with Leishmania amazonensis.
With `CC1CS(=O)(=O)CCN1/N=C/c1ccc([N+](=O)[O-])o1` (centres undefined) [NIFURTIMOX], in the assay on Trypanosoma cruzi, it took 0.45 µM to reach half-maximal inhibition (IC50).
In the case of `Cc1ccc(C(=O)Nc2ccc(S(=O)(=O)O)c3cc(S(=O)(=O)O)cc(S(=O)(=O)O)c23)cc1NC(=O)c1cccc(NC(=O)Nc2cccc(C(=O)Nc3cc(C(=O)Nc4ccc(S(=O)(=O)O)c5cc(S(=O)(=O)O)cc(S(=O)(=O)O)c45)ccc3C)c2)c1` [SURAMIN], in the assay with Trypanosoma brucei, the midpoint of inhibition, the IC50, lay at 0.09 µM.
As to MEGLUMINE ANTIMONATE, the IC50 with Leishmania infantum was 7.15 µM.
